Experimental findings from PubChem BioAssay AID2305 (GlaxoSmithKline (GSK), 2010) are described below.

In this assay the test system is P. falciparum 3D7 growth, pLDH absorbance. Kind of assay: P. falciparum 3D7 growth inhibition, dose response, strain 3D7 (AID 2305).

For the compound `Cc1ccc(NC(=O)Nc2ccc(Cl)cc2)cc1-c1cccc(C(=O)Nc2ccc(F)cc2)c1`, the 50% inhibitory concentration (IC50) (usually the concentration at which inhibition is half-maximal) was 740 nM.
The result for `COc1ccc(-n2ccnc2SCC(=O)Nc2cc(C)ccc2C)c(OC)c1` reads 200 nM.
The result for `CCNc1cc(C(=O)N[C@@H](Cc2ccccc2)[C@H](O)CNCc2cccc(OC)c2)c(OC)c(N2CCCCS2(=O)=O)c1` reads 690 nM.
With `Brc1cnc(NC2=NCCN2)c(Br)c1` the figure was 340 nM; with `CCCCNc1cc(C)nc(NCc2ccccc2)n1`, 970 nM.
For `O=C(NCc1ccccc1)c1nn(CCCN2CCC(N3CCCC3)CC2)cc1-c1ccc(Cl)c(Cl)c1`, the IC50 is 670 nM. This IC50 and that of the compound before are within 1.5-fold of each other.
With `COc1cc(Nc2nccc(Nc3ccc4c(C)[nH]nc4c3)n2)cc2ccccc12` the figure was 700 nM; with `C=CCC(C(=O)Nc1ccnc2ccc(OC)cc12)C1CCN(CCCCCCC)CC1` (stereo unspecified), 240 nM; with `Nc1cccc(CNCc2ccc(-c3cccc(-c4nc5ccc(C(F)(F)F)cc5[nH]4)c3)cc2)c1`, 170 nM.
The result for `CS(=O)(=O)Nc1cccc(-c2cnc3[nH]cc(-c4cccc(CN)c4)c3c2)c1` reads 1660 nM; that for `O=S1C(Cl)=C(c2ccc(Cl)cc2)c2ccc(Cl)cc21` (stereo unspecified), 990 nM.
Take `COc1ccc(C(=O)N2CCC(C(=O)NC(C)c3ccc(-n4ccnc4)cc3)CC2)c2ccccc12` (stereo unspecified): the half-maximal inhibitory concentration (IC50) was 1130 nM.
The result for `COc1ccc2nccc(NN=Cc3ccc(Cl)cc3)c2c1` reads 210 nM.
With `CCCC(C(=O)OCCNC)(c1ccccc1)c1ccccc1` the figure was 890 nM; with `CC[C@H](C)CNC(=O)c1ccnc(-c2ccc(CNC3Cc4ccccc4C3)cc2)c1`, 570 nM; with `COC(=O)c1cccc(CNCc2cccc(-c3csc(-c4nc5ccccc5[nH]4)c3)c2)c1`, 690 nM.
For `Cc1cccc(C(=O)Nc2ccnc(N(C)C3CCN(CC(C)C)CC3)c2)c1`, the IC50 amounted to 870 nM. This IC50 and that of the compound before are within 1.5-fold of each other.
With `Cc1ccc(Cn2cnc(N3CC(C)NC(C)C3)cc2=O)cc1NC(=O)Nc1ccc(-c2ccccc2)cc1` (stereo unspecified) the figure was 850 nM; with `CCc1cc(N2CCN(c3ccccc3F)CC2)nc(SCc2ccc(C(=O)NC3CC3)o2)n1`, 890 nM.
In turn, `CN=C(N)c1ccc(NC(=O)c2ccc(C(=O)Nc3ccc(C(N)=NC)cc3)cc2)cc1` displayed a half-inhibitory concentration (IC50) of 50 nM.
With `O=C(Nc1cccc(-c2cccc(-c3nc4ccc(C(F)(F)F)cc4[nH]3)c2)c1)c1ccc(=O)[nH]n1` the figure was 660 nM; with `Fc1ccccc1-c1cc(Nc2ccncc2)nc(-c2cccnc2)n1`, 260 nM; with `O=C(/C=C/c1ccc(Br)cc1)NCCCCCN1CCC(c2c[nH]c3ccccc23)CC1`, 720 nM.
The result for `COc1ccc(C2CC(=O)C3=C(C2)NC(C)=C(C(=O)OC2CCCC2)C3c2ccc(O)cc2)cc1OC` (stereo unspecified) reads 570 nM; that for `CN1CCCN(Cc2cccc(-c3cccc(NC(=O)c4cccc(C#N)c4)c3)c2)CC1`, 820 nM.
The result for `O=C(Nc1ccc2oc(-c3ccc(Cl)cc3Cl)nc2c1)c1ccc([N+](=O)[O-])o1` reads 1100 nM; that for `CCc1cn2c3c(cc(C(=O)N[C@@H](Cc4ccccc4)[C@H](O)CNC(C)(C)c4cccc(OC)c4)cc13)N(C)S(=O)(=O)C2`, 60 nM.
On to `NC1CCN(Cc2ccc(-c3ccc(-c4nc5ccccc5[nH]4)s3)cc2)C1` (stereo unspecified), for which the IC50 was 740 nM. Compared with the last compound, the IC50 is about 12-fold higher.
The result for `Cc1ccccc1OCC(O)CNC1CCC(NCC(O)COc2ccccc2C)CC1` (stereo unspecified) reads 1190 nM; that for `COc1c(C2CCN(CCCCNC(=O)c3ccc(-c4ccc(Cl)cc4)c(OCCN(C)C)c3)CC2)ccc2c1CCCC2`, 190 nM; that for `O=c1cc(NCCCNCc2csc(Br)c2Sc2ccc(Cl)cc2)[nH]c2ccccc12`, 850 nM.
With `CC(Oc1c(C2CCN(CCCCNC(=O)c3ccc(-c4ccc(C#N)cc4)cc3)CC2)ccc2c1CCCC2)C(N)=O` (stereo unspecified) the figure was 680 nM; with `CCCc1nc2c(N3CCCN(C(=O)NC4CCCCC4)CC3)cccc2n1Cc1ccccn1`, 1160 nM; with `COc1ccc2nccc([C@@H](O)CN3CCC(NCc4cc5ccccc5[nH]4)CC3)c2c1`, 1100 nM.
The result for `N#Cc1cccc(NC(=O)c2cccc(S(=O)(=O)NC3CCN(CC4CCCCC4)C3)c2)c1` (stereo unspecified) reads 580 nM.
In turn, `Cc1c(CC(=O)NCCC2CCN(CCCCCNC(=O)/C=C/c3ccc(Cl)c(Cl)c3)CC2)sc2ccc(Cl)cc12` had a concentration for half-maximal inhibition (IC50) of 880 nM.
With `CC(=O)c1cc(N2CCOCC2)ccc1N` the figure was 910 nM.
The result for `CCCCCc1cc(OC(=O)CCCN(CC)CC)c2c(c1)OC(C)(C)C=C2C1=CCN(Cc2ccc3ccccc3c2)CC1` reads 160 nM; that for `CCCC(CNCc1cccc(SC(F)(F)F)c1)CNc1cc(=O)c2ccccc2[nH]1` (stereo unspecified), 710 nM.
With `CCCCCCOc1ccc(C(=O)N(Cc2ccccc2)c2c(-c3ccccc3)nc3cc(C)ccn23)cc1` the figure was 770 nM; with `C=CCOc1ccc(-c2c(C)[nH]c(C)c(Br)c2=O)cc1`, 280 nM; with `O=C(NCC1CCC(C(=O)O)CC1)c1ccc(/C=C/C(=O)N2CCc3ccccc3C2c2ccc3c(c2)OCO3)cc1` (stereo unspecified), 890 nM.
With `COc1ccccc1N(C)CCNc1cc(C)nc(Nc2ccc(C)cc2)n1`, the concentration for half-maximal inhibition (IC50) came to 1570 nM. Against the preceding compound, the IC50 is about 1.8-fold higher.
The result for `CC(=O)Nc1ccc(S(=O)(=O)NC2=NC(C)(C)N(OCc3ccc(Cl)c(Cl)c3)C(N)=N2)cc1` reads 30 nM; that for `Cc1cccc2[nH]c(-c3ccc(-c4cccc(CNC5CCN(C)CC5)c4)s3)nc12`, 180 nM; that for `Cc1ccc2c(C3=CCN(CCCCC4(C)C(=O)Nc5ccccc54)CC3)c(C)[nH]c2c1` (stereo unspecified), 370 nM.
`CS(=O)(=O)c1ccc2c(c1)CCN(CCC1CCC(NC(=O)C(=Cc3cccc(C#N)c3)c3ccc(-c4ccccc4)cc3)CC1)CC2` (stereo unspecified) came in with an IC50 of 840 nM.
The result for `Cc1cc(-c2ccc(NC(=O)Nc3ccc4nccc(N5CCN(C)CC5)c4c3)cc2C)cc(C)n1` reads 150 nM.
With `N#CCCN1CCN(Cc2cccc(-c3ccc(-c4nc5ccc(C(F)(F)F)cc5[nH]4)cc3)c2)CC1` the figure was 740 nM; with `CC(CN1CCN(C)CC1)C(=O)Nc1cccc(-c2cccc(-c3nc4ccccc4[nH]3)c2)c1` (stereo unspecified), 1010 nM; with `NC(N)=NN=Cc1ccc2c(c1)Cc1ccccc1-2`, 590 nM.
With `Cc1nc2ccc3ccc(CNc4ccc(C(=O)CC(CCC(=O)O)C(=O)O)cc4)cc3c2c(=O)[nH]1` (stereo unspecified) the figure was 40 nM; with `Cc1cc(N2CCCCC2)nc2ccc(NC(=O)c3cncc(Br)c3)cc12`, 720 nM; with `CCc1ccc(-n2c(=O)c3cccnc3n2CC(=O)NC2CCCC2)cc1`, 920 nM.
The compound `Cc1[nH]c2ccc(NS(C)(=O)=O)cc2c1C1CCN(CC2CCN(C(=O)/C=C/c3ccc(Cl)c(Cl)c3)CC2)CC1` showed an IC50 of 680 nM.
With `NC(=O)C1CCN(Cc2cccc(-c3ccc(-c4nc5ccc(C(F)(F)F)cc5[nH]4)cc3)c2)CC1` the figure was 610 nM.
With `COCCn1c(C)nc2ccccc2c1=O` the figure was 1460 nM; with `Cc1ccc(CN2CCN(c3cc4c(cc3Cl)CCN4C(=O)Cc3ccc(NC(=O)c4ccc(C(F)(F)F)cc4)cc3)CC2)cc1`, 940 nM; with `COc1ccc(C2=C(Nc3ccc4oc5ccccc5c4c3)c3ccccc3C2=O)cc1`, 830 nM.
In the case of `Cc1ccc(C)c(S(=O)(=O)NCC2CCN(Cc3ccc(O)cc3)CC2)c1`, the IC50 came to 980 nM. The IC50 values of the last two compounds are within 1.5-fold of each other.
With `COc1cc(-c2nc(-c3ccccc3)c(-c3ccc([N+](=O)[O-])cc3)[nH]2)cc(OC)c1O` the figure was 830 nM.
